Source: article PMC10999543, “Identification of kinase modulators as host-directed therapeutics against intracellular methicillin-resistant Staphylococcus aureus” (Frontiers in Cellular and Infection Microbiology, 2024)
Where two headings read alike, the source gives them in different places.

Assays:
intracellular MRSA = type: cell-based, Staphylococcus aureus; settings: for z-scoreMRSA+ mean: mean of 3 replicates; for z-scoreMRSA+ rep 1 / %GFP+ rep 1: replicate 1; for z-scoreMRSA+ rep 2 / %GFP+ rep 2: replicate 2; for z-scoreMRSA+ rep 3 / %GFP+ rep 3: replicate 3
In short: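 HeLa cells were infected with GFP-expressing MRSA (mean MOI 6.8) for 1 h, treated with 30 µg/ml gentamicin for 15 min, then incubated overnight at 37°C with kinase inhibitors and 5 µg/ml gentamicin. Flow cytometry gave % GFP-positive cells, with cell count as viability. Hits were z-score ≤ -2 (infection) and ≥ -3 (count) versus DMSO.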

HeLa cells = assay: Compound screen by flow cytometry: HeLa cell count as surrogate readout of cell viability (z-scoreHeLa); type: cell-based, human
In short: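 The viability surrogate was the count of fixed HeLa cells by flow cytometry, converted to z-scores against DMSO controls with values deviating two-fold excluded. Before counting, cells had been infected with MRSA for 1 h and cleared of extracellular bacteria with gentamicin. They were then exposed overnight to kinase inhibitors in triplicate.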

[1] = PKIS compound screen, Yes/No call
[2] = PKIS compound screen, Yes/No call (effect without cell death)
[3] = PKIS compounds raw data, MRSA-infected HeLa cells
[4] = PKIS compound screen, mean of 3 replicates
[5] = PKIS compound screen, replicate 1
[6] = PKIS compound screen, replicate 2
[7] = PKIS compound screen, replicate 3
[8] = PKIS compounds raw data, replicate 1, HeLa cell count
[9] = PKIS compounds raw data, replicate 2, HeLa cell count
[10] = PKIS compounds raw data, replicate 3, HeLa cell count
[11] = PKIS compound screen raw data, MRSA-infected HeLa cells
[12] = PKIS compound screen, MRSA-infected HeLa cells
[13] = PKIS compound screen, Yes/No call on z-scoreMRSA+
[14] = PKIS compound screen raw data, HeLa cell count, replicate 1
[15] = PKIS compound screen raw data, HeLa cell count, replicate 2
[16] = PKIS compound screen raw data, HeLa cell count, replicate 3
[17] = PKIS compound screen, HeLa cell count, mean of 3 replicates
[18] = PKIS compound screen, HeLa cell count, replicate 1
[19] = PKIS compound screen, HeLa cell count, replicate 2
[20] = PKIS compound screen, HeLa cell count, replicate 3
[21] = PKIS compound screen, Yes/No call on z-scoreHeLa
[22] = Yes/No: effect without cell death
[23] = compound screen, MRSA-infected HeLa cells
[24] = compound screen, HeLa cell count, mean of 3 replicates
[25] = compound screen, HeLa cell count, replicate 1
[26] = compound screen, HeLa cell count, replicate 2
[27] = compound screen, HeLa cell count, replicate 3

| SMILES | effect (intracellular MRSA; [1]) | hit (intracellular MRSA; [2]) | z-scoreMRSA+ mean (intracellular MRSA; PKIS compound screen) | z-scoreMRSA+ rep 1 (intracellular MRSA; PKIS compound screen) | z-scoreMRSA+ rep 2 (intracellular MRSA; PKIS compound screen) | z-scoreMRSA+ rep 3 (intracellular MRSA; PKIS compound screen) | %GFP+ rep 1 (intracellular MRSA; [3]) | %GFP+ rep 2 (intracellular MRSA; [3]) | %GFP+ rep 3 (intracellular MRSA; [3]) | cell death (HeLa cells; [1]) | z-scoreHeLa mean (HeLa cells; [4]) | z-scoreHeLa rep 1 (HeLa cells; [5]) | z-scoreHeLa rep 2 (HeLa cells; [6]) | z-scoreHeLa rep 3 (HeLa cells; [7]) | cell count rep 1 (HeLa cells; [8]) | cell count rep 2 (HeLa cells; [9]) | cell count rep 3 (HeLa cells; [10]) | %GFP+ rep 1 (intracellular MRSA; [11]) | %GFP+ rep 2 (intracellular MRSA; [11]) | %GFP+ rep 3 (intracellular MRSA; [11]) | further results |
| --- | --- | --- | --- | --- | --- | --- | --- | --- | --- | --- | --- | --- | --- | --- | --- | --- | --- | --- | --- | --- | --- |
| Cc1cccc(-c2nc(Nc3ccc4ncsc4c3)c3ccccc3n2)n1 [GW867588X] | No | No | 0.0377 | -0.25 | 0.22 | 0.14 | 25.8% | 27.2% | 28.0% | No | 1.67 | 1.09 | 1.64 | 2.28 | 7867 | 8486 | 9199 | – | – | – | – |
| COc1cc(Nc2ncc3c(C)nc(-c4cc5ccccc5[nH]4)n3n2)cc(OC)c1OC [GW869516X] | No | No | -0.71 | -0.87 | -0.43 | -0.83 | 22.6% | 23.8% | 22.8% | No | 1.43 | 1.29 | 1.41 | 1.60 | 8188 | 8134 | 8115 | – | – | – | – |
| Cc1nc(-c2ccccc2)n2nc(NCCCN3CCOCC3)ncc12 [GW874091X] | No | No | 0.31 | 0.36 | 0.54 | 0.0338 | 14.3% | 15.1% | 16.0% | No | -0.73 | -1.54 | -0.37 | -0.27 | 3071 | 3785 | 6390 | – | – | – | – |
| Cc1cccc(-c2nc(Nc3cccc(C(N)=O)c3)c3ccccc3n2)n1 [GW876019X] | No | No | 0.49 | 0.42 | 0.20 | 0.84 | 29.2% | 27.1% | 31.8% | No | -1.99 | -2.12 | -2.54 | -1.32 | 2511 | 2183 | 3514 | 11.7% | 12.9% | 16.0% | z-scoreMRSA+ mean (intracellular MRSA; [12]): -1.70; z-scoreMRSA+ rep 1 (intracellular MRSA; [12]): -1.89; z-scoreMRSA+ rep 2 (intracellular MRSA; [12]): -1.78; z-scoreMRSA+ rep 3 (intracellular MRSA; [12]): -1.43; effect (intracellular MRSA; [13]): No; cell count rep 1 (HeLa cells; [14]): 25839; cell count rep 2 (HeLa cells; [15]): 10617; cell count rep 3 (HeLa cells; [16]): 8442; z-scoreHeLa mean (HeLa cells; [17]): -1.76; z-scoreHeLa rep 1 (HeLa cells; [18]): -0.74; z-scoreHeLa rep 2 (HeLa cells; [19]): -2.51; z-scoreHeLa rep 3 (HeLa cells; [20]): -2.04; cell death (HeLa cells; [21]): No |
| Cc1cccc(-c2nc(Nc3ccc4c(cnn4C)c3)c3ccccc3n2)n1 [GW876731X] | – | – | – | – | – | – | – | – | – | – | – | – | – | – | – | – | – | 19.5% | 19.1% | 19.8% | effect (intracellular MRSA; Yes/No call from z-scoreMRSA+): No; hit (intracellular MRSA; [22]): No; z-scoreMRSA+ mean (intracellular MRSA; [23]): -0.09; z-scoreMRSA+ rep 1 (intracellular MRSA; [23]): 0.19; z-scoreMRSA+ rep 2 (intracellular MRSA; [23]): -0.0842; z-scoreMRSA+ rep 3 (intracellular MRSA; [23]): -0.39; cell count rep 1 (HeLa cells; [14]): 29057; cell count rep 2 (HeLa cells; [15]): 27157; cell count rep 3 (HeLa cells; [16]): 25742; cell death (HeLa cells; Yes/No call from z-scoreHeLa): No; z-scoreHeLa mean (HeLa cells; [24]): 0.49; z-scoreHeLa rep 1 (HeLa cells; [25]): -0.19; z-scoreHeLa rep 2 (HeLa cells; [26]): 0.32; z-scoreHeLa rep 3 (HeLa cells; [27]): 1.33 |
| CN1CCC(n2cnc(-c3ccc(F)cc3)c2-c2ccnc(Nc3ccccc3)n2)CC1 [SB-236687] | – | Yes | – | – | – | – | – | – | – | – | – | – | – | – | – | – | – | 10.0% | 12.2% | 12.7% | z-scoreMRSA+ mean (intracellular MRSA; [12]): -2.18; z-scoreMRSA+ rep 1 (intracellular MRSA; [12]): -2.49; z-scoreMRSA+ rep 2 (intracellular MRSA; [12]): -1.90; z-scoreMRSA+ rep 3 (intracellular MRSA; [12]): -2.16; effect (intracellular MRSA; [13]): Yes; cell count rep 1 (HeLa cells; [14]): 21592; cell count rep 2 (HeLa cells; [15]): 24622; cell count rep 3 (HeLa cells; [16]): 40771; z-scoreHeLa mean (HeLa cells; [17]): -0.54; z-scoreHeLa rep 1 (HeLa cells; [18]): 0.22; z-scoreHeLa rep 2 (HeLa cells; [19]): -1.90; z-scoreHeLa rep 3 (HeLa cells; [20]): 0.04; cell death (HeLa cells; [21]): No |
| Cl.Cl.Cl.Fc1ccc(-c2ncn(C3CCNCC3)c2-c2ccnc(Nc3ccccc3)n2)cc1 [SB-238039-R] | – | – | – | – | – | – | 7.4% | 6.7% | 6.5% | – | – | – | – | – | 1720 | 1088 | 3178 | – | – | – | effect (intracellular MRSA; Yes/No call from z-scoreMRSA+): Yes; hit (intracellular MRSA; [22]): Yes; z-scoreMRSA+ mean (intracellular MRSA; [23]): -2.31; z-scoreMRSA+ rep 1 (intracellular MRSA; [23]): -1.86; z-scoreMRSA+ rep 2 (intracellular MRSA; [23]): -2.29; z-scoreMRSA+ rep 3 (intracellular MRSA; [23]): -2.78; cell death (HeLa cells; Yes/No call from z-scoreHeLa): No; z-scoreHeLa mean (HeLa cells; [24]): -2.33; z-scoreHeLa rep 1 (HeLa cells; [25]): -2.76; z-scoreHeLa rep 2 (HeLa cells; [26]): -2.40; z-scoreHeLa rep 3 (HeLa cells; [27]): -1.81 |
| Fc1ccc(-c2ncn(C3CCNCC3)c2-c2ccnc(Oc3ccc(F)c(F)c3)n2)cc1 [SB-253228] | – | No | – | – | – | – | – | – | – | – | – | – | – | – | – | – | – | 13.5% | 14.9% | 15.9% | z-scoreMRSA+ mean (intracellular MRSA; [12]): -1.22; z-scoreMRSA+ rep 1 (intracellular MRSA; [12]): -1.38; z-scoreMRSA+ rep 2 (intracellular MRSA; [12]): -1.09; z-scoreMRSA+ rep 3 (intracellular MRSA; [12]): -1.18; effect (intracellular MRSA; [13]): No; cell count rep 1 (HeLa cells; [14]): 9973; cell count rep 2 (HeLa cells; [15]): 28239; cell count rep 3 (HeLa cells; [16]): 36229; z-scoreHeLa mean (HeLa cells; [17]): -1.15; z-scoreHeLa rep 1 (HeLa cells; [18]): -1.54; z-scoreHeLa rep 2 (HeLa cells; [19]): -1.22; z-scoreHeLa rep 3 (HeLa cells; [20]): -0.68; cell death (HeLa cells; [21]): No |
| CN1C(=O)C(Nc2ccccc2)=C(c2ccccc2)C1=O [SB-300079] | No | No | -0.64 | -0.99 | -0.37 | -0.55 | 22.0% | 24.1% | 24.3% | No | 0.41 | -0.31 | 0.70 | 0.83 | 5536 | 7057 | 6914 | – | – | – | – |
| COc1cccc(C2=C(Nc3ccc(Cl)c(C(=O)O)c3)C(=O)NC2=O)c1 [SB-390769] | No | No | 0.47 | -0.05 | 0.72 | 0.73 | 26.8% | 29.8% | 31.2% | No | 1.73 | 0.80 | 1.87 | 2.53 | 7373 | 8825 | 9583 | – | – | – | – |
| CCN(CC)CCOc1ccc(Nc2ncc3cc(-c4c(Cl)cccc4Cl)c(=O)n(C)c3n2)cc1 [SB-601273] | – | – | – | – | – | – | – | – | – | – | – | – | – | – | – | – | – | 32.3% | 28.1% | 25.0% | effect (intracellular MRSA; Yes/No call from z-scoreMRSA+): No; hit (intracellular MRSA; [22]): No; z-scoreMRSA+ mean (intracellular MRSA; [23]): 1.27; z-scoreMRSA+ rep 1 (intracellular MRSA; [23]): 1.64; z-scoreMRSA+ rep 2 (intracellular MRSA; [23]): 1.33; z-scoreMRSA+ rep 3 (intracellular MRSA; [23]): 0.84; cell death (HeLa cells): No; cell count rep 1 (HeLa cells; human): 895; cell count rep 2 (HeLa cells; human): 949; cell count rep 3 (HeLa cells; human): 1208; z-scoreHeLa mean (HeLa cells; human): -2.54; z-scoreHeLa rep 1 (HeLa cells; human): -2.49; z-scoreHeLa rep 2 (HeLa cells; human): -2.58; z-scoreHeLa rep 3 (HeLa cells; human): -2.55 |
| CN(C)CCOc1ccc(-c2cc(-c3ccc(Cl)c(O)c3)c(-c3ccncc3)[nH]2)cc1.Cl.Cl [SB-684387-B] | – | – | – | – | – | – | – | – | – | – | – | – | – | – | – | – | – | 13.0% | 10.9% | 11.1% | effect (intracellular MRSA; Yes/No call from z-scoreMRSA+): Yes; hit (intracellular MRSA; [22]): Yes; z-scoreMRSA+ mean (intracellular MRSA; [23]): -3.01; z-scoreMRSA+ rep 1 (intracellular MRSA; [23]): -2.86; z-scoreMRSA+ rep 2 (intracellular MRSA; [23]): -2.84; z-scoreMRSA+ rep 3 (intracellular MRSA; [23]): -3.32; cell count rep 1 (HeLa cells; [14]): 7005; cell count rep 2 (HeLa cells; [15]): 6368; cell count rep 3 (HeLa cells; [16]): 7752; cell death (HeLa cells; Yes/No call from z-scoreHeLa): No; z-scoreHeLa mean (HeLa cells; [24]): 1.70; z-scoreHeLa rep 1 (HeLa cells; [25]): 1.91; z-scoreHeLa rep 2 (HeLa cells; [26]): 1.59; z-scoreHeLa rep 3 (HeLa cells; [27]): 1.59 |
